Active and inactive are the calls of the source. No cut-off for these calls is given here.
Assays:
[1] = Toxicity in nu/nu mouse xenografted with human MCF7 cells assessed as effect on kidney at 20 mg/kg, ip administered once every other day for 21 days by HE staining based analysis; format: organism-based; conditions: in vivo, 504 h, time 21 day
[2] = system: MCF7; assay: Induction of cell senescence in human MCF7 cells assessed by increase SA-beta-Gal positive cells at 2 uM measured after 48 hrs; format: functional, cell-based
[3] = Metabolic stability in human liver microsomes assessed as compound remaining at 100 uM incubated for 60 mins in presence of NADPH by LC-MS/MS analysis; format: ADME, Microsome; conditions: read-out: Stability
[4] = system: MCF7; assay: Induction of cell cycle arrest at G2 phase in human MCF7 cells at 0.3 to 3 uM incubated for 36 hrs by Annexin V-FITC//propidium iodide staining based flow cytometry analysis; format: functional
[5] = Apparent permeability across basolateral to apical side in human Caco-2 cells at 2 uM incubated for 2 hrs by LC-MS/MS analysis; format: ADME, cell-based
[6] = target: T1, Protein cereblon/Serine/threonine-protein kinase PLK4 (Homo sapiens, UniProt O00444+Q96SW2); assay: Protac activity at CRBN/PLK4 in human MCF7 cells by Western blot analysis; format: cell-based
Target sequence in this assay (Q96SW2 whole entry, one chain of several): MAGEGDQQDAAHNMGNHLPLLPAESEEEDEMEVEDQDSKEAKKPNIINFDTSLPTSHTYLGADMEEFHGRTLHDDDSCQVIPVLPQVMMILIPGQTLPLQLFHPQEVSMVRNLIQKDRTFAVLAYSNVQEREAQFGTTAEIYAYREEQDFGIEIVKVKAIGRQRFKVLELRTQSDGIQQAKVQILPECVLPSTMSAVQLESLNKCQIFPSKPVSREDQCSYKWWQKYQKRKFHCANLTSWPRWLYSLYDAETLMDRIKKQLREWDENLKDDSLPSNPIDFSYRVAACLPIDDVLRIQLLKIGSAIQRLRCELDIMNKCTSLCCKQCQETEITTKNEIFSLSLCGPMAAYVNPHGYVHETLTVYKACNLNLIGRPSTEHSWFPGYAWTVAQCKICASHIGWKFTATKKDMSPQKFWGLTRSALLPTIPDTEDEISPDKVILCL

[7] = Toxicity in nu/nu mouse xenografted with human MCF7 cells assessed as effect on lungs at 20 mg/kg, ip administered once every other day for 21 days by HE staining based analysis; format: organism-based; conditions: in vivo, 504 h, time 21 day
[8] = system: MCF7; assay: Inhibition of colony formation in human MCF7 cells incubated for 14 days by crystal violet staining based assay; format: functional, cell-based; conditions: dose 0.05-1 µM, time 14.0 day
[9] = system: MCF7; assay: Inhibition of human MCF7 cells migration at 0.1 to 1 uM by inverted microscopic analysis; format: functional, cell-based; conditions: dose 0.1-1 µM, time 48.0 hrs, TDE = time-dependent effect
[10] = target: CYP3A4 (Homo sapiens, UniProt P08684); assay: Inhibition of CYP3A4 in human liver microsomes at 10 uM using ketoconazole as substrate preincubated for 10 mins followed by NADPH regenerating system addition and measured after 15 mins by LC-MS/MS analysis relative to control; format: ADME, Microsome; conditions: time 25 min
[11] = Metabolic stability in human liver microsomes assessed as half life at 100 uM incubated for 60 mins in presence of NADPH by LC-MS/MS analysis; format: ADME, Microsome
[12] = Metabolic stability in mouse liver microsomes assessed as compound remaining at 100 uM incubated for 60 mins in presence of NADPH by LC-MS/MS analysis; format: ADME, Microsome; conditions: read-out: Stability
[13] = target: T2, Serine/threonine-protein kinase PLK4 (Homo sapiens, UniProt O00444); assay: Inhibition of PLK4 (unknown origin) incubated for 1 hr in presence of kinase tracer 236 by FRET assay
T2 sequence (O00444 whole entry): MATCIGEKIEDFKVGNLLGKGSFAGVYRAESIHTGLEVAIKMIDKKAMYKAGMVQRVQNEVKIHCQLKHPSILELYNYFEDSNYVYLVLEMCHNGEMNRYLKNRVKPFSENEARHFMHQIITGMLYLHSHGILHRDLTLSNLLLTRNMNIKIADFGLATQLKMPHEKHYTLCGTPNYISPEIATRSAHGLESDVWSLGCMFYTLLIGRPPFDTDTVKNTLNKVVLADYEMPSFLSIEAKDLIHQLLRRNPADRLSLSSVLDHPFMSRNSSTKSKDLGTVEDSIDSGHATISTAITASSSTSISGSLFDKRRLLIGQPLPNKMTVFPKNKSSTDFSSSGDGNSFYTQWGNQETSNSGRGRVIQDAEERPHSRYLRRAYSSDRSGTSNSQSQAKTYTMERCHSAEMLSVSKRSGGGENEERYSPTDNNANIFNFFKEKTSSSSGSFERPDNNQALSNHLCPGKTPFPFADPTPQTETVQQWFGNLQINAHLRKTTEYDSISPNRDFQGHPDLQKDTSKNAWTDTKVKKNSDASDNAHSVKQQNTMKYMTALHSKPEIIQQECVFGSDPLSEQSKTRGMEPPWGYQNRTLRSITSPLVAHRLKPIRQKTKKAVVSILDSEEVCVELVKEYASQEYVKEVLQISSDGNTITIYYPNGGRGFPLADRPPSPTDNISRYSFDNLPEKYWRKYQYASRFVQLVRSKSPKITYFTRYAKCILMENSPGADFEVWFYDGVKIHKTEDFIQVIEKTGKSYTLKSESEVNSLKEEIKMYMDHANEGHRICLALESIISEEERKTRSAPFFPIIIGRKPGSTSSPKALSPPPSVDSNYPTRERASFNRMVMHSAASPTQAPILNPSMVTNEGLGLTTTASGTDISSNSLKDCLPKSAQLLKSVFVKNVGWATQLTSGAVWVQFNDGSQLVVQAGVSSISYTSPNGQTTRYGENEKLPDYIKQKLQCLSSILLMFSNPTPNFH

[14] = system: MCF7; assay: Induction of apoptosis in human MCF7 cells at 0.3 to 3 uM incubated for 36 hrs by Annexin V-FITC//propidium iodide staining based flow cytometry analysis; format: functional, cell-based; conditions: dose 0.3-3 µM
[15] = target: T1, Protein cereblon/Serine/threonine-protein kinase PLK4; assay: Protac activity at CRBN/PLK4 in human MCF7 cells at 10 uM incubated for 48 hrs by Western blot analysis; format: cell-based
Target sequence in this assay (Q96SW2 whole entry, looked up, one chain of several): as the sequence (Q96SW2 whole entry, one chain of several) above

[16] = Toxicity in nu/nu mouse xenografted with human MCF7 cells assessed as change in body weight at 20 mg/kg, ip administered once every other day for 21 days; format: organism-based; conditions: in vivo, 504 h, time 21 day
[17] = target: CYP2C19 (Homo sapiens, UniProt P33261); assay: Inhibition of CYP2C19 in human liver microsomes at 10 uM using (+)-3-benzylnirvanol as substrate preincubated for 10 mins followed by NADPH regenerating system addition and measured after 15 mins by LC-MS/MS analysis relative to control; format: ADME, Microsome; conditions: probe (+)-3-benzylnirvanol (named as substrate in the text), time 25 min
[18] = Observed volume of distribution at steady state in ICR mouse at 2 mg/kg, iv measured upto 24 hrs by LC-M/MS analysis; format: ADME, organism-based; conditions: in vivo, read-out: Vdss
[19] = Bioavailability in ICR mouse at […] measured upto 24 hrs by LC-M/MS analysis; format: ADME, organism-based; conditions: in vivo
[20] = Half life in ICR mouse at 2 mg/kg, iv measured upto 24 hrs by LC-M/MS analysis; format: ADME, organism-based; conditions: in vivo
[21] = Toxicity in nu/nu mouse xenografted with human MCF7 cells assessed as effect on heart at 20 mg/kg, ip administered once every other day for 21 days by HE staining based analysis; format: organism-based; conditions: in vivo, 504 h, time 21 day
[22] = Toxicity in nu/nu mouse xenografted with human MCF7 cells assessed as effect on liver at 20 mg/kg, ip administered once every other day for 21 days by HE staining based analysis; format: organism-based; conditions: in vivo, 504 h, time 21 day
[23] = target: T1, Protein cereblon/Serine/threonine-protein kinase PLK4; assay: Protac activity at CRBN/PLK4 in human MCF7 cells at 1 uM by Western blot analysis; format: cell-based
Target sequence in this assay (Q96SW2 whole entry, looked up, one chain of several): as the sequence (Q96SW2 whole entry, one chain of several) above

[24] = system: Mus musculus; assay: In vivo induction of PLK degradation in human MCF7 cells xenografted in nu/nu mouse at 20 mg/kg, ip administered once every other day for 21 days by western blotting analysis; format: functional, organism-based; conditions: time 21.0 day
[25] = Metabolic stability in mouse liver microsomes assessed as intrinsic clearance at 100 uM incubated for 60 mins in presence of NADPH by LC-MS/MS analysis; format: ADME, Microsome; conditions: read-out: CLH

CYP2C19, sequence (P33261 whole entry): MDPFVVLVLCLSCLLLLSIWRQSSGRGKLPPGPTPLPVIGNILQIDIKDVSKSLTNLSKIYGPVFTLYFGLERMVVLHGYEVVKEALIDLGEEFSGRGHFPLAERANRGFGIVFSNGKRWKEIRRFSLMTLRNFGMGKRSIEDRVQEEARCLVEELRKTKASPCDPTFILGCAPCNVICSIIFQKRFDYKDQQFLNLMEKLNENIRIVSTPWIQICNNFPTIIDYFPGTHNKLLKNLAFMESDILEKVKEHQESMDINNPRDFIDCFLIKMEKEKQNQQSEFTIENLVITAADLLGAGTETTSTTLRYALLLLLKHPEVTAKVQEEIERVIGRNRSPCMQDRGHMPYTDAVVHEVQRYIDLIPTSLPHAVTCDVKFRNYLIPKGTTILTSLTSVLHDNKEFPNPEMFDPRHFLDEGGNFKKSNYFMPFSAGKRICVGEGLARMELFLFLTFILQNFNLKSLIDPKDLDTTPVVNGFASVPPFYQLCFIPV
CYP3A4, sequence (P08684 whole entry): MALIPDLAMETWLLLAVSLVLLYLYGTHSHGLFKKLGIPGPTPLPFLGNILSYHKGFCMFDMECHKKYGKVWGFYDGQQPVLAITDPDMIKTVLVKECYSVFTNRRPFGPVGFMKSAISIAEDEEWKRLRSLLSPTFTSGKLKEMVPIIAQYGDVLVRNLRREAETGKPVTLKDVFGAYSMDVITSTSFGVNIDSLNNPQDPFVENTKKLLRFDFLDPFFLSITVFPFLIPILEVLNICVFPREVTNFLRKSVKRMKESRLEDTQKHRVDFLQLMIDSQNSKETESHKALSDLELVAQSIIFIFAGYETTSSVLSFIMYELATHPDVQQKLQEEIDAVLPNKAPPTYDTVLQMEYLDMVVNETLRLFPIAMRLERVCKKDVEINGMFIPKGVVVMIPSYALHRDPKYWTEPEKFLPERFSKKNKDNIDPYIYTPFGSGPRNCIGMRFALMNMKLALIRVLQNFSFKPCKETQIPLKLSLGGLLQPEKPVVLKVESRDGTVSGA

Question: For `Cc1cc(Nc2nc(NCc3ccc(F)cc3F)nc3c2cnn3C2CCN(C(=O)C3CCN(c4ccc5c(c4)C(=O)N(C4CCC(=O)NC4=O)C5=O)CC3)CC2)n[nH]1` (stereo not given), which Activity [1] is on record?
Answer: Its Activity is “Non-Toxic”.

Question: And the Activity [2]?
Answer: The Activity was “Active”.

Question: What about the remaining at 1 h, 100 µM [3] of the same compound?
Answer: The remaining at 1 h, 100 µM was 51.7%.

Question: What about the Activity [4] of the same compound?
Answer: The Activity was “Dose-Dependent Effect”.

Question: What about the Papp B→A at 2 h, 2 µM [5] of the same compound?
Answer: The Papp B→A at 2 h, 2 µM was 0.97 ×10⁻⁶ cm/s.

Question: And the DC50 [6]?
Answer: Its DC50 is 19.5 nM.

Question: And the Activity [7]?
Answer: The Activity was “Non-Toxic”.

Question: What about the inhibition [8] of the same compound?
Answer: The inhibition was “Dose-Dependent Effect”.

Question: And the inhibition [9]?
Answer: The inhibition was “Tde”.

Question: And the inhibition at 0.25 h, 10 µM [10]?
Answer: The inhibition at 0.25 h, 10 µM was 20.4%.

Question: What about the half-life at 100 µM [11] of the same compound?
Answer: The half-life at 100 µM was 63.9 min.

Question: And the remaining at 1 h, 100 µM [12]?
Answer: The remaining at 1 h, 100 µM was 56.4%.

Question: What about the IC50 [13] of the same compound?
Answer: The IC50 was 8.4 nM.

Question: What about the Activity [14] of the same compound?
Answer: Its Activity is “Dose-Dependent Effect”.

Question: What about the Activity [15] of the same compound?
Answer: Its Activity is 83.5%.

Question: What about the Activity [16] of the same compound?
Answer: The Activity was “Non-Toxic”.

Question: What about the inhibition at 0.25 h, 10 µM [17] of the same compound?
Answer: Its inhibition at 0.25 h, 10 µM is 23.4%.

Question: And the Vd [18]?
Answer: Its Vd is 16.3 L/kg.

Question: What about the bioavailability [19] of the same compound?
Answer: Its bioavailability is 149%.

Question: What about the half-life [20] of the same compound?
Answer: Its half-life is 320 min.

Question: And the Activity [21]?
Answer: Its Activity is “Non-Toxic”.

Question: And the Activity [22]?
Answer: Its Activity is “Non-Toxic”.

Question: And the Activity [23]?
Answer: Its Activity is “Active”.

Question: And the inhibition [24]?
Answer: Its inhibition is “Active”.

Question: And the microsomal CLint at 100 µM [25]?
Answer: The microsomal CLint at 100 µM was 17.1 µL/min/mg.

From ChEMBL document CHEMBL5338818, “Discovery of the First Potent, Selective, and In Vivo Efficacious Polo-like Kinase 4 Proteolysis Targeting Chimera Degrader for the Treatment of TRIM37-Amplified Breast Cancer” (J Med Chem, 2023)
